In the supplement of paper PMC10307832:

Compound: Cc1cc(Nc2cc(N3CCN(C)CC3)nc(Sc3ccc(NC(=O)C4CC4)cc3)n2)n[nH]1 [Tozasertib]
Assay: relative viability (nuclei count vs DMSO), 5 days (fraction); higher = more cells survive
How it was run: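 After an overnight hold at 37 °C, lung cancer cell lines in 1536-well plates were pinned with five library-drug doses (not always all listed), each √10 from the next, on vehicle-anchored plates. The cells stayed 5 days without fresh medium, then a one-step fix, permeabilisation and Hoechst stain preceded 4× imaging and MetaXpress nuclear counts. A plate passed only with control CV under 25% and at least one doubling. Viability is the median, over plates, of treated-well nuclei relative to vehicle-well nuclei.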

Cell Line	relative viability (0.004 µM)	relative viability (0.01265 µM)	relative viability (0.04 µM)	relative viability (0.1 µM, anchor plate)	relative viability (0.1265 µM)
201T	0.973	0.956	0.968	0.915	0.89
A-427	1.04	0.911	1.08	0.212	0.505
ABC-1	1.02	0.858	0.767	0.186	0.412
BEN	1.11	0.921	1.06	–	0.759
CAL-12T	1.09	–	0.952	0.309	0.42
COR-L23	1.02	0.958	0.947	0.203	0.701
COR-L 105	0.956	0.974	0.957	0.36	0.473
ChaGo-K-1	1.06	1	1	0.233	0.858
EKVX	0.939	0.937	0.988	0.386	0.898
EMC-BAC-2	1.01	0.946	0.913	0.294	0.486
EPLC-272H	0.981	–	1	0.296	0.55
H3255	1.07	0.854	0.966	0.721	0.833
HARA	0.981	–	1.01	0.11	0.519
HCC-15	1.06	0.936	1.04	0.393	0.687
HCC-44	1.02	0.903	1.01	0.974	–
HCC-78	1.1	0.819	1.09	0.464	0.806
HCC-366	0.991	1.01	1.08	0.123	0.93
HCC-827	1.1	1.04	1.09	0.414	0.976
HOP-62	1.02	0.992	0.987	0.398	0.88

Cell Line	relative viability (0.004 µM)	relative viability (0.01265 µM)	relative viability (0.04 µM)	relative viability (0.1 µM, anchor plate)	relative viability (0.1265 µM)
LC-2-ad	1.06	0.913	0.928	0.453	0.494
LCLC-97TM1	1.07	0.94	0.906	0.236	0.396
LCLC-103H	1.06	1.06	1.02	0.499	0.952
LK-2	1.09	0.847	1.09	0.176	0.489
LOU-NH91	0.787	0.918	1.1	0.659	0.9
LU99A	1.05	0.904	0.824	0.282	0.594
LXF-289	1	0.972	0.943	0.199	0.759
NCI-H23	1.05	0.953	0.885	0.365	0.501
NCI-H322M	0.92	–	1.02	0.493	0.682
NCI-H358	1	–	0.977	0.109	0.37
NCI-H441	0.987	–	–	0.664	–
NCI-H460	1.01	0.955	1.04	0.415	0.868
NCI-H520	1.07	0.934	1.07	0.458	0.547
NCI-H522	1.12	1	1.05	0.565	0.671
NCI-H596	0.993	0.883	1.01	0.919	0.988
NCI-H647	1.04	–	0.926	0.279	0.458
NCI-H650	0.993	0.934	0.918	0.724	0.606
NCI-H661	0.976	0.94	1	0.367	0.68
